Measured values published in patent publication US10406207B2, “Peptide conjugates of GLP-1 receptor agonists and gastrin and their use” (priority 2010, dated 2019).
Read-outs that look alike come from different tables or passages of the source. Numbered stars: 1 amine (or outer) side, 2 acyl side, 3 side chain; on linkers, the order of the positions; unused ones are H or OH. Square brackets hold non-standard residues; d marks the D form. Side chains are listed from the residue outwards. Ends that are not written are not given here. Peptide text beside a SMILES is read from it. * marks the point of attachment. γGlu = O=C(O)[C@H](CCC(=O)[*:2])N[*:1]; Palmitoyl = CCCCCCCCCCCCCCCC(=O)*; Orn = NCCC[C@H](N)C(=O)O; AEEA = NCCOCCOCC(=O)O

Columns and labels:
Format in all cases: cell-based
human CCK-B R = target: T1, human CCK-B R (Homo sapiens, UniProt P32239); test: Human CCK-B receptor efficacy assay (AlphaScreen SureFire p-ERK); details: read-out: hCCK-B R EC50
T1 construct: expressed in transfected cells
T1 sequence (P32239 1-447): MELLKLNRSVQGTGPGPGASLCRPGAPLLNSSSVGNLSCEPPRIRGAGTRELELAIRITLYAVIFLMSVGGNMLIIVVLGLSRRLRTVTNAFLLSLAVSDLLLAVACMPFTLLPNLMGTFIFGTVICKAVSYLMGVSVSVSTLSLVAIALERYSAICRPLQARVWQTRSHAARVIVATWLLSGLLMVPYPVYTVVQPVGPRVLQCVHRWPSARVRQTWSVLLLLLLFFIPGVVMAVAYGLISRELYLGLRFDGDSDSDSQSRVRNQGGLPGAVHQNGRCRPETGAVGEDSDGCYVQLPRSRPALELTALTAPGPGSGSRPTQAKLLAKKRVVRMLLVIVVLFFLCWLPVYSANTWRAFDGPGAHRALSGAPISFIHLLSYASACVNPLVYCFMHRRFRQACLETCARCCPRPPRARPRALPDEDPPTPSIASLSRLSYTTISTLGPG

mouse CCK-B R = target: T2, mouse CCK-B R (Mus musculus, UniProt P56481); test: Mouse CCK-B receptor efficacy assay (AlphaScreen SureFire p-ERK)
T2 construct: expressed in transfected cells
T2 sequence (P56481 1-453): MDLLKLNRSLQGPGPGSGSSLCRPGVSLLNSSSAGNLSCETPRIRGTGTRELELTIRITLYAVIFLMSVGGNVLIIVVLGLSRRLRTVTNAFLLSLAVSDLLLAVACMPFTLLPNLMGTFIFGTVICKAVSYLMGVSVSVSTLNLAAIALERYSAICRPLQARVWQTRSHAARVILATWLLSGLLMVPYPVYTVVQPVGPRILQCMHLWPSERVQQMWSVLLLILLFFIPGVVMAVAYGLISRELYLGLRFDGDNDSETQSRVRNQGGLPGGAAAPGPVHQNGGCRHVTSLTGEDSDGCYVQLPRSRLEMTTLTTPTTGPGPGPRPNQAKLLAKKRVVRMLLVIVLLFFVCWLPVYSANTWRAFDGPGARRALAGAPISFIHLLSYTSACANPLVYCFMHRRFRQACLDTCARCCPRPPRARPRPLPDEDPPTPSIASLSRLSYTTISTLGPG
Source text: CCK-B Receptor (CCK-B R) Efficacy Assay:
To test binding and activation of CCK-B R we produced stable cell lines expressing one of the human or mouse CCK receptors in a manner similar to that for production of the hGLP-1 R cell lines were generated (vide supra). In brief, we used HEK293 cells for transfection of the cDNA for human or mouse CCK-A R or CCK-B R [hCCK-A R (gene identity: L19315), hCCK-B R (NM_176875), mCCK-A R (NM_009827) and mCCK-B R (NM_007627)] all cloned into the transfection plasmid pIRESneo2dNGFR. The cells were grown according to standard protocol in growth medium and transfected with the plasmids using Lipofectamin (Invitrogen). The cells stably expressing CCK receptors were selected using G418 in the growth medium (only cells that have taken up and incorporated the cDNA expression plasmid survive) and propagated. Stocks of cells were frozen for later use.
In vitro effects of peptide conjugates of the invention were estimated by measuring p-ERK (using the AlphaScreen™ SureFire p-ERK assay) in HEK293 cells stably expressing the human and mouse CCK-B R (high-affinity Gastrin receptor), respectively. The Gastrin receptor efficacy assays (AlphaScreen™ SureFire p-ERK assay) were performed as follows:
The CCK-B R expressing cells in question were seeded at 20,000 cells/well in 100 μl growth medium [DMEM, 10% FCS, Penicillin (100 IU/ml), Streptomycin (100 μg/ml)] in a 96-well plate coated with poly-D-lysine. The cells were incubated in an incubator (37° C., 5% […]) for two days.
The growth medium was changed to 80 μl of serum-free medium [DMEM, Penicillin (100 IU/ml), Streptomycin (100 μg/ml)] per well, and incubation of the cells was continued for 19 hours in the incubator (37° C., 5% CO2).
• 1. After 19 hours, 20 μl of serum-free medium containing one of 5 different concentrations of peptide conjugate was added (performed in triplicate for each concentration), and the cells were incubated for 5 min. at room temperature. • 2. The stimulation medium was discarded by quickly turning the plate upside down, and 60 μl 1× lysis buffer (from the SureFire assay kit) was added per well. • 3. The plate was shaken on a plate-shaker for 5 min and then placed on ice. • 4. SureFire P-ERK assay: 4 μl of each supernatant was transferred to a 384 well proxiplate (Perkin Elmer). • 5. 4 μl of each of the two control lysates (unstimulated and stimulated) were added to the proxiplate in duplicate. • 6. […] 7 μl of the latter reaction buffer+activation buffer+beads per well were added in the proxiplate, the mix being resuspended carefully before addition to the wells. • 7. The plate was incubated for 2 hours in a dark box in a 22° C. incubator. • 8. The plate was analyzed on an Envision™ light-emission plate reader (Perkin-Elmer) using the appropriate reading program (Perkin-Elmer).

human GLP-1 R = target: T3, human GLP-1 R (Homo sapiens, UniProt P43220); test: Human GLP-1 receptor efficacy assay (cAMP induction, FlashPlate); details: read-out: hGLP-1 R EC50
T3 construct: expressed in transfected cells
Experimental: On the day of analysis, growth medium was removed and the cells were washed once with 200 μl Tyrode buffer [Tyrode's Salts (9.6 g/l), 10 mM HEPES, pH 7.4]. […] The reaction was stopped by addition of 25 μl 0.5 M HCl and incubated on ice for 60 min.

[1] = Table 1, HEK293 cells expressing human CCK-B R, p-ERK
[2] = Table 1, HEK293 cells expressing mouse CCK-B R, p-ERK, read-out: mCCK-B R EC50

T3 sequence (P43220 24-463): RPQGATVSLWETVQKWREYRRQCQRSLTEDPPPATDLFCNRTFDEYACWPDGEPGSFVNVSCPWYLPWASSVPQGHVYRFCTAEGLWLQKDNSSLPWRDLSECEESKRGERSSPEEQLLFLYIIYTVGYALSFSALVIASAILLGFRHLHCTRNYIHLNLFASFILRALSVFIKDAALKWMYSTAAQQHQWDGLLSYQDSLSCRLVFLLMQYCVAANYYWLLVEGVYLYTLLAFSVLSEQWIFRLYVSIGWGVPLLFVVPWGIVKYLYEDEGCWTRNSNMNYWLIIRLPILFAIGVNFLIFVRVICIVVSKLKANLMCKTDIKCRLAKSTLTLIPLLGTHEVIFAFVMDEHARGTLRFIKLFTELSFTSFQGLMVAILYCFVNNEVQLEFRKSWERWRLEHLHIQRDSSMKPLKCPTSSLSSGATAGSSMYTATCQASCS

| EC50 (human CCK-B R; [1]) [nM] | EC50 (mouse CCK-B R; [2]) [nM] | EC50 (human GLP-1 R; Table 2) [nM] | EC50 (human CCK-B R; Table 2) [nM] | Compound | also measured |
| --- | --- | --- | --- | --- | --- |
| – | – | 0.11 | 16 | CC[C@H](C)[C@H](NC(=O)[C@H](Cc1ccccc1)NC(=O)[C@H](CC(C)C)NC(=O)[C@H](CCCNC(=N)N)NC(=O)[C@@H](NC(=O)[C@H](C)NC(=O)[C@H](CCC(=O)O)NC(=O)[C@H](CCC(=O)O)NC(=O)[C@H](CCC(=O)O)NC(=O)[C@H](CC(C)C)NC(=O)[C@H](Cc1ccc(O)cc1)NC(=O)[C@H](CCCCN)NC(=O)[C@H](CO)NC(=O)[C@H](CC(C)C)NC(=O)[C@H](CCC(=O)O)NC(=O)[C@H](CO)NC(=O)[C@@H](NC(=O)[C@H](Cc1ccccc1)NC(=O)[C@@H](NC(=O)CNC(=O)[C@H](CCC(=O)O)NC(=O)CNC(=O)[C@@H](N)Cc1c[nH]cn1)[C@@H](C)O)[C@@H](C)O)C(C)C)C(=O)N[C@@H](CCC(=O)O)C(=O)N[C@@H](Cc1ccccc1)C(=O)N[C@@H](CC(C)C)C(=O)N[C@@H](CCCCN)C(=O)N[C@@H](CCCN)C(=O)N[C@@H](CCCN)C(=O)N[C@@H](Cc1ccc(O)cc1)C(=O)NCC(=O)N[C@@H](Cc1c[nH]c2ccccc12)C(=O)N[C@@H](CC(C)C)C(=O)N[C@@H](CC(=O)O)C(=O)N[C@@H](Cc1ccccc1)C(N)=O [Compound 105, [Glu9,Leu14,Phe25,Tyr13]Exendin-4(1-27)-Orn-Orn-[Leu4]Gastrin6] (H-HGEGTFTSELSKYLEEEAVRLFIEFLK[Orn][Orn]YGWLDF-NH2) | – |
| – | – | 1.2 | 211 | H-HGEGTFTSELSKYLEEEAVRLFIEFLKWLDF-NH2 [Compound 96, [Glu9,Leu14,Phe25,Tyr13]Exendin-4(1-27)-[Leu2]Gastrin4] | – |

Second part, the compound before the results:

| Compound | EC50 (human CCK-B R; [1]) [nM] | EC50 (mouse CCK-B R; [2]) [nM] | EC50 (human GLP-1 R; Table 2) [nM] | EC50 (human CCK-B R; Table 2) [nM] | also measured |
| --- | --- | --- | --- | --- | --- |
| CC[C@H](C)[C@H](NC(=O)[C@H](Cc1ccccc1)NC(=O)[C@H](CCC(=O)O)NC(=O)[C@H](CCCCN)NC(=O)[C@H](C)NC(=O)[C@H](C)NC(=O)[C@H](CCC(N)=O)NC(=O)CNC(=O)[C@H](CCC(=O)O)NC(=O)[C@H](CC(C)C)NC(=O)[C@H](Cc1ccc(O)cc1)NC(=O)[C@H](CO)NC(=O)[C@H](CO)NC(=O)[C@@H](NC(=O)[C@H](CC(=O)O)NC(=O)[C@H](CO)NC(=O)[C@@H](NC(=O)[C@H](Cc1ccccc1)NC(=O)[C@@H](NC(=O)CNC(=O)[C@H](CCC(=O)O)NC(=O)[C@H](C)NC(=O)[C@@H](N)Cc1c[nH]cn1)[C@@H](C)O)[C@@H](C)O)C(C)C)C(=O)N[C@@H](C)C(=O)N[C@@H](Cc1c[nH]c2ccccc12)C(=O)N[C@@H](CC(C)C)C(=O)N[C@H](C(=O)N[C@@H](CCCCN)C(=O)NCC(=O)N[C@@H](CCCNC(=N)N)C(=O)NCCc1cccc2c1oc1c(CCC(=O)N[C@@H](CO)C(=O)N[C@@H](CCCCN)C(=O)N[C@@H](CCCCN)C(=O)N[C@@H](CCC(N)=O)C(=O)NCC(=O)N3CCC[C@H]3C(=O)N[C@@H](Cc3c[nH]c4ccccc34)C(=O)N[C@@H](CC(C)C)C(=O)N[C@@H](CCC(=O)O)C(=O)N[C@@H](CCC(=O)O)C(=O)N[C@@H](CCC(=O)O)C(=O)N[C@@H](CCC(=O)O)C(=O)N[C@@H](CCC(=O)O)C(=O)N[C@@H](C)C(=O)N[C@@H](Cc3ccc(O)cc3)C(=O)NCC(=O)N[C@@H](Cc3c[nH]c4ccccc34)C(=O)N[C@@H](CC(C)C)C(=O)N[C@@H](CC(=O)O)C(=O)N[C@@H](Cc3ccccc3)C(N)=O)cccc12)C(C)C [Compound 44, GLP-1(7-36)-DBF-SKK-[Gln1,Leu15]Gastrin17] | 25.7 | 86.9 | – | – | – |
| CC[C@H](C)[C@H](NC(=O)[C@H](Cc1ccccc1)NC(=O)[C@H](CCC(=O)O)NC(=O)[C@H](CCCCN)NC(=O)[C@H](C)NC(=O)[C@H](C)NC(=O)[C@H](CCC(N)=O)NC(=O)CNC(=O)[C@H](CCC(=O)O)NC(=O)[C@H](CC(C)C)NC(=O)[C@H](Cc1ccc(O)cc1)NC(=O)[C@H](CO)NC(=O)[C@H](CO)NC(=O)[C@@H](NC(=O)[C@H](CC(=O)O)NC(=O)[C@H](CO)NC(=O)[C@@H](NC(=O)[C@H](Cc1ccccc1)NC(=O)[C@@H](NC(=O)CNC(=O)[C@H](CCC(=O)O)NC(=O)[C@H](C)NC(=O)[C@@H](N)Cc1c[nH]cn1)[C@@H](C)O)[C@@H](C)O)C(C)C)C(=O)N[C@@H](C)C(=O)N[C@@H](Cc1c[nH]c2ccccc12)C(=O)N[C@@H](CC(C)C)C(=O)N[C@H](C(=O)N[C@@H](CCCCN)C(=O)NCC(=O)N[C@@H](CCCNC(=N)N)C(=O)NCCOCCOCC(=O)NCCOCCOCC(=O)N[C@@H](CCC(N)=O)C(=O)NCC(=O)N1CCC[C@H]1C(=O)N[C@@H](Cc1c[nH]c2ccccc12)C(=O)N[C@@H](CC(C)C)C(=O)N[C@@H](CCC(=O)O)C(=O)N[C@@H](CCC(=O)O)C(=O)N[C@@H](CCC(=O)O)C(=O)N[C@@H](CCC(=O)O)C(=O)N[C@@H](CCC(=O)O)C(=O)N[C@@H](C)C(=O)N[C@@H](Cc1ccc(O)cc1)C(=O)NCC(=O)N[C@@H](Cc1c[nH]c2ccccc12)C(=O)N[C@@H](CC(C)C)C(=O)N[C@@H](CC(=O)O)C(=O)N[C@@H](Cc1ccccc1)C(N)=O)C(C)C [Compound 42, GLP-1(7-36)-Peg3-Peg3-[Gln1,Leu15]Gastrin17] | 8.2 | 58.3 | – | – | – |
| QGPWLEEEEEAYGWLDF-NH2 [h[Gln1,Leu15]Gastrin17, reference compound] | – | – | – | – | EC50 (mouse CCK-B R): 18.2 nM |
| CCCCCCCCCCCCCCCC(=O)N[C@@H](CCC(=O)NCCCC[C@H](NC(=O)CNC(=O)[C@H](CCCNC(=N)N)NC(=O)[C@@H](NC(=O)[C@H](CC(C)C)NC(=O)[C@H](Cc1c[nH]c2ccccc12)NC(=O)[C@H](C)NC(=O)[C@@H](NC(=O)[C@H](Cc1ccccc1)NC(=O)[C@H](CCC(=O)O)NC(=O)[C@H](CCCNC(=N)N)NC(=O)[C@H](C)NC(=O)[C@H](C)NC(=O)[C@H](CCC(N)=O)NC(=O)CNC(=O)[C@H](CCC(=O)O)NC(=O)[C@H](CC(C)C)NC(=O)[C@H](Cc1ccc(O)cc1)NC(=O)[C@H](CO)NC(=O)[C@H](CO)NC(=O)[C@@H](NC(=O)[C@H](CC(=O)O)NC(=O)[C@H](CO)NC(=O)[C@@H](NC(=O)[C@H](Cc1ccccc1)NC(=O)[C@@H](NC(=O)CNC(=O)[C@H](CCC(=O)O)NC(=O)CNC(=O)[C@@H](N)Cc1c[nH]cn1)[C@@H](C)O)[C@@H](C)O)C(C)C)[C@@H](C)CC)C(C)C)C(=O)NCC(=O)NCCOCCOCC(=O)NCCOCCOCC(=O)N[C@@H](Cc1ccc(O)cc1)C(=O)NCC(=O)N[C@@H](Cc1c[nH]c2ccccc12)C(=O)N[C@@H](CC(C)C)C(=O)N[C@@H](CC(=O)O)C(=O)N[C@@H](Cc1ccccc1)C(N)=O)C(=O)O [Compound 110, [Arg26,34,Gly8,Lys(Hexadecanoyl-isoGlu)36]GLP-1(7-37)-Peg3-Peg3-[Leu4]Gastrin6] (H-HGEGTFTSDVSSYLEGQAAREFIAWLVRGK([γGlu-Palmitoyl])G[AEEA][AEEA]YGWLDF-NH2) | – | – | – | – | EC50 (human GLP-1 R; Table 3): 0.12 nM; EC50 (human CCK-B R; Table 3): 29 nM |
